CC(=O)Oc1ccccc1C(=O)Nc1ncc([N+](=O)[O-])s1
solubility (mole fraction)
Details	278.15 K	283.15 K	288.15 K	293.15 K	298.15 K	303.15 K	308.15 K	313.15 K	318.15 K	323.15 K
in DMF	0.0665	0.0716	0.077	0.0825	0.0882	0.0934	0.0992	0.106	0.112	0.118
in NMP	0.0891	0.093	0.0964	0.1	0.104	0.107	0.112	0.116	0.119	0.123
in isopropanol	0.000205	0.000239	0.000277	0.000319	0.000367	0.000419	0.000476	0.000542	0.000607	0.000684
in water	1.26e-07	1.66e-07	2.23e-07	2.93e-07	3.81e-07	4.98e-07	6.34e-07	8.11e-07	9.9e-07	1.24e-06

Reference: BigSolDB 2.1
